Data from ChEMBL document CHEMBL2417415, “Polyketides with New Delhi metallo-β-lactamase 1 inhibitory activity from Penicillium sp” (J Nat Prod, 2013).
In brackets after ≈: the same amount, converted by molar mass. Activity calls are given as the source filed them. The calls are words filed in the database; no cut-off is given here.

Legend:
Klebsiella pneumoniae [1] = experiment: Antibacterial activity against Klebsiella pneumoniae ATCC BAA-2146 at 10 uM after 24 hrs by spectrophotometry; assay type: functional, organism-based
HCT-8 = experiment: Cytotoxicity assay against human HCT8 cells at 10 uM after 96 hrs by MTT assay; assay type: functional, cell-based
KETR3 = experiment: Cytotoxicity assay against human Ketr3 cells at 10 uM after 96 hrs by MTT assay; assay type: functional, cell-based
Bel-7402 = experiment: Cytotoxicity assay against human Bel7402 cells at 10 uM after 96 hrs by MTT assay; assay type: functional, cell-based
MCF7 = experiment: Cytotoxicity assay against human MCF7 cells at 10 uM after 96 hrs by MTT assay; assay type: functional, cell-based
BGC-823 = experiment: Cytotoxicity assay against human BGC823 cells at 10 uM after 96 hrs by MTT assay; assay type: functional, cell-based
A549 = experiment: Cytotoxicity assay against human A549 cells at 10 uM after 96 hrs by MTT assay; assay type: functional, cell-based
Coxsackievirus B3 = experiment: Antiviral activity against Coxsackievirus B3 at 10 uM; assay type: functional, organism-based
Influenza A virus [2] = experiment: Antiviral activity against influenza A virus A/FM/1/47 (H1N1) infected in MDCK cells at 10 uM by Reed and Muench analysis; assay type: functional, organism-based
Influenza A virus [3] = experiment: Antiviral activity against influenza A virus A/Hanfang/359/95 (H3N2) infected in MDCK cells at 10 uM by Reed and Muench analysis; assay type: functional, organism-based
[4] = Inhibition of NDM-1 (unknown origin) expressed in Escherichia coli BL21 using meropenem as substrate compound preincubated for 15 min by spectrophotometry
Klebsiella pneumoniae [5] = experiment: Antibacterial activity against Klebsiella pneumoniae ATCC BAA-2146 after 24 hrs by spectrophotometry; assay type: functional; conditions: ATCC BAA-2146, 24 h
Klebsiella pneumoniae [6] = experiment: Antibacterial activity against Klebsiella pneumoniae ATCC BAA-2146 assessed as reduction in meropenem MIC at 128 ug/mL after 24 hrs by spectrophotometry; assay type: functional, organism-based
Klebsiella pneumoniae [7] = experiment: Antibacterial activity against Klebsiella pneumoniae ATCC BAA-2146 at 256 ug/mL after 24 hrs by spectrophotometry; assay type: functional, organism-based

C[C@H]1C[C@@H](O)[C@@H]2O[C@@H]2[C@H]1O
Activity (Klebsiella pneumoniae [1]): inactive | Activity (HCT-8): inactive | Activity (KETR3): inactive | Activity (Bel-7402): inactive | Activity (MCF7): inactive | Activity (BGC-823): inactive | Activity (A549): inactive | Activity (Coxsackievirus B3): inactive | Activity (Influenza A virus [2]): inactive | Activity (Influenza A virus [3]): inactive

C[C@H](CS)C(=O)N1CCC[C@@H]1C(=O)O [D-CAPTOPRIL]
IC50 [4]: 8 µM

C[C@@H](O)[C@H]1C(=O)N2C(C(=O)O)=C(S[C@@H]3CN[C@H](C(=O)N(C)C)C3)[C@H](C)[C@H]12 [MEROPENEM]
MIC (Klebsiella pneumoniae [5]): 128 µg/mL (≈ 334 µM)

C[C@H](CS)C(=O)N1CCC[C@H]1C(=O)O [CAPTOPRIL]
IC50 [4]: 108 µM

O=C(O)C[C@H](NC(=O)c1cc(=O)[nH]c2ccccc12)C(=O)O
Activity (Klebsiella pneumoniae [1]): inactive | Activity (HCT-8): inactive | Activity (KETR3): inactive | Activity (Bel-7402): inactive | Activity (MCF7): inactive | Activity (BGC-823): inactive | Activity (A549): inactive | Activity (Coxsackievirus B3): inactive | Activity (Influenza A virus [2]): inactive | Activity (Influenza A virus [3]): inactive

CC(=O)C[C@H](O)c1coc2cc(O)cc(C(=O)O)c2c1=O
Activity (Klebsiella pneumoniae [6]): inactive | Activity (Klebsiella pneumoniae [7]): inactive | IC50 [4]: 94.9 µM | Activity (Klebsiella pneumoniae [1]): inactive | Activity (HCT-8): inactive | Activity (KETR3): inactive | Activity (Bel-7402): inactive | Activity (MCF7): inactive | Activity (BGC-823): inactive | Activity (A549): inactive | Activity (Coxsackievirus B3): inactive | Activity (Influenza A virus [2]): inactive | Activity (Influenza A virus [3]): inactive

COc1c(O)cc2oc3cc(C)ncc3c(=O)c2c1C(=O)O
Activity (Klebsiella pneumoniae [6]): inactive | Activity (Klebsiella pneumoniae [7]): inactive | IC50 [4]: 87.9 µM | Activity (Klebsiella pneumoniae [1]): inactive | Activity (HCT-8): inactive | Activity (KETR3): inactive | Activity (Bel-7402): inactive | Activity (MCF7): inactive | Activity (BGC-823): inactive | Activity (A549): inactive | Activity (Coxsackievirus B3): inactive | Activity (Influenza A virus [2]): inactive | Activity (Influenza A virus [3]): inactive

O=C(O)CN(CCN(CC(=O)O)CC(=O)O)CC(=O)O [EDETIC ACID]
IC50 [4]: < 0.1 µM
